The record followed here is US10577322B2, “5-methoxytryptophan and its derivatives and uses thereof” (National Health Research Institutes, priority 2015, dated 2020).

One data set relates to TNF-α. The data set can be described thus: LPS-induced TNF-α production in RAW264.7 cells. The note with it: data not shown. The class given is cell-based, mouse.
In data set [1] the test system is COX-2. The data set can be described thus: LPS-induced COX-2 protein expression in RAW264.7 cells (immunoblot). The class given is cell-based, mouse. The note with it: LPS 8 h. How it is done:
Mouse RAW264.7 macrophages were from the American Type Culture Collection and cultured in DMEM containing 10% FBS. […] The duration of LPS (100 ng/ml) treatment varied depending on the experiment.
Cellular protein were resolved by 5% to 20% SDS-PAGE and transferred to nitrocellulose membranes and blotted with specific antibodies as previously described (Lee, G. L., et al.).
After pretreating mouse macrophage RAW264.7 cells with different concentrations of 5-MTP for 30 min, cells were stimulated with LPS for 8 h. Cell lysates were immunoblotted with antibodies for COX-2 or β-actin. In addition, RAW264.7 cells were transfected with COX-2 promoter-luciferase plasmid. After 24 h transfection, the cells were incubated with LPS for 8 h. Luciferase activity was measured.
In general terms: A western blot detects proteins with antibodies after separation by electrophoresis.

Data set [2] in a line: Serum 5-MTP level in mice after 5-MTP administration. The note with it: 5-MTP 23.4 mg/kg. Format: in vivo. How it is done:
To ensure that 5-MTP administration increases serum 5-MTP, we analyzed 5-MTP level at 24 h and 72 h after 5-MTP infusion. Serum 5-MTP concentrations in mice treated with saline or LPS with or without 5-MTP (23.4 mg/kg) at 24 h and 72 h. The error bars denote mean±SD (n=3).

The next data set deals with BALF total cell number. The data set can be described thus: Cell number in bronchoalveolar lavage fluid (trypan blue exclusion). The following applies: 24 h after LPS. Format: in vivo, mice. How it is done: Furthermore, bronchoalveolar lavage fluid (BALF) was isolated from mice treated with LPS with or without various concentrations of 5-MTP for 24 h. Cell number in BALF was determined by trypan blue exclusion assay.

Data set [3] deals with COX-2. The data set can be described thus: COX-2 immunohistochemistry in lung tissues of LPS-treated mice. The note with it: LPS 60 mg/kg; 12 h, 16 h and 24 h. The class given is in vivo. How it is done:
Prior to immunohistochemical detection of COX-2, iNOS, Ly6g, or cleaved caspase-3 in lung sections, sections were deparaffinized with xylene, progressively rehydrated through graded alcohols. Antigen sites were retrieved by heating the sections on slides in pH 8 EDTA antigen. retrieval (Trilogy; Cell Marque Corporation) in electric pressure cooker for 15 min. […] All antibodies described hereafter were diluted in blocking buffer. Sections were incubated at room temperature for 2 h with primary antibody and then washed in PBST. The sections were incubated with primary antibody amplifier quanta (Thermo) for 10 minutes. After rinsing with PBST, the sections were incubated with HRP Polymer Quanto (Thermo) for 10 minutes and washed three times with PBST. COX-2, iNOS, Ly6g and cleaved caspase-3 were visualized by the addition of DAB Quanto Chromogen: Substrate for 3 minutes. Tissues were also counterstained with hematoxylin.
Moreover, paraffin-embedded sections were prepared from lungs of mice injected with 60 mg/kg LPS with or without saline or 5-MTP at 12 h, 16 h and 24 h. COX-2 and inducible nitric oxide synthase (iNOS) protein levels in lung tissues were determined by immunohistochemistry by staining with anti-COX-2 and anti-iNOS antibodies, respectively. The results are shown in FIGS. 6A-6B, in which scale bars represent 100 μm. […]

The test system of another data set is NF-κB p65. In words: Phospho-NF-κB p65 (Ser536) in RAW264.7 cells (immunoblot). The class given is cell-based, mouse. The note with it: LPS 4 h. How it is done: Furthermore, after pretreating RAW264.7 cells with different concentrations of 5-MTP for 30 min, cells were stimulated with. LPS for 4 h. NF-κB p65, phospho-NF-κB p65 (p-p65) (Ser536) or β-actin was determined by immunoblotting with specific antibodies. Also, peritoneal macrophages were treated with LPS with or without 5-MTP (50 μM) for the indicated time. Phospho-p65 in the lysates was analyzed by an ELISA kit. The results are shown in FIG. 10D, in which the error bars denote mean ±SD (n=3). According to FIGS. 10C-10D, 5-MTP decreased LPS-induced phosphorylation of NF-κB p65 not only in RAW264.7 cells (FIG. 10C) but also in peritoneal macrophages (FIG. 10D).

Data set [4] deals with COX-2. The data set can be described thus: LPS-induced COX-2 expression in peritoneal macrophages (western blot). The note with it: primary mouse peritoneal macrophages, LPS 8 h. Format: cell-based. How it is done: For peritoneal macrophage isolation, C57BL/6J mice were injected intraperitoneally with 2 ml of 4% thioglycollate. Four days after injection, the peritoneal cavity was washed with 5 ml of ice-cold RPMI1640 medium, and cells from the peritoneal exudates were collected by centrifugation, and suspended in RPMI1640 medium, then seeded on 15-cm dishes and allowed to adhere for 4 h. Floating cells were washed out, and adherent cells were used as peritoneal macrophages in the experiments. The cells were incubated with or without LPS (100 ng/ml) for the indicated time before each experiment, as in the protocol for the RAW264.7 cells.
Furthermore, peritoneal macrophages were stimulated with LPS with or without 5-MTP. After 8 h, COX-2 protein expression was determined by western blot. The experiments were repeated 3 times with similar results.

In a further data set the test system is ligated carotid arteries. The data set can be described thus: Neointima formation model of carotid artery ligation. The note with it: 100 mg/kg IP 3 times a week, four weeks after ligation. Format: in vivo, mice. How it is done: Approximately 12-week-old male C57BL/6 wild-type mice ational Laboratory Animal Center, Taiwan) were subjected to a neointima formation model by ligating the left common carotid artery (LCCA). The Institutional. Animal Care and Use Committee of National Health Research Institutes, Taiwan approved all experimental procedures (#NHRI-IACUC-101144-A). Mice were anesthetized with tribromoethanol solution at a dose of 250 mg/kg by IP injection. After assessing the level of anesthesia by checking the pedal reflex, the LCCA was exposed through a midline incision in the neck. […] Following surgery, mice were treated with vehicle (PBS) or 100 mg/kg of 5-MTP (Sigma, M4001) by IP injection 3 times a week. 5-MTP was dissolved in 0.05 N HCl (made in PBS) first, pH adjusted to 7.4 by NaOH, and then a stock solution of 6.5 mg/mL was prepared with PBS. The stock solution was then sterilized by filtering through a 0.22 μm-filter before use. At indicated time points (4, 7, and 28 d after surgery), mice were anesthetized with tribromoethanol solution (500-750 mg/kg), perfused with saline, followed by 10% neutral-buffered-formalin. The contralateral control (right common carotid artery) and ligated LCCA were then carefully dissected, excised, and immersed in 10% formalin before processing and embedding in paraffin. […]

For `COc1ccc2[nH]cc(C[C@H](N)C(=O)O)c2c1` [5-MTP, 5-methoxytryptophan], the TNF-α production entry in the data set on TNF-α is given as “inhibited”. The “LPS-induced COX-2 protein expression” value with COX-2 [1] is listed as “blocked”. In data set [2], the “serum 5-MTP level at 24 h after administration” value was “several-fold over the basal level” and the “serum 5-MTP level at 72 h” value is given as “returned to basal level”. Moreover, in the data set with BALF total cell number, the “total cell number in BALF” value is “reduced by 5-MTP in a dose-dependent manner”. The “COX-2 expression in lung tissues” value in the data set with COX-2 [3] is “suppresses”. Besides, the “LPS-induced phosphorylation of NF-κB p65” value in the data set on NF-κB p65 is given as “decreased”. Moreover, the “LPS-induced COX-2 expression” value with COX-2 [4] is reported as “inhibited”. Moreover, in the data set with ligated carotid arteries, the intima/media area ratio was 0.58±0.11 and the intimal thickening entry was “reduced”.
